Laboratory results: the NIST ThermoML archive (doi:10.1021/acs.jced.6b00750)
± gives the expanded uncertainty stated by the source.

Conditions: Liquid; for mass density: Vibrating wire densiometer; for viscosity: Vibrating wire viscometry

## CCCCCCCCCCCCCCCC [hexadecane]
298.36 K, 1060 kPa
  mass density: 769.2 ± 2.3 kg/m3
  viscosity: 3.107 ± 0.065 mPa·s
298.36 K, 1080 kPa
  mass density: 769.2 ± 2.3 kg/m3
  viscosity: 3.109 ± 0.065 mPa·s
298.36 K, 10010 kPa
  mass density: 775 ± 2.3 kg/m3
  viscosity: 3.497 ± 0.072 mPa·s
298.36 K, 21090 kPa
  mass density: 781.2 ± 2.3 kg/m3
  viscosity: 4.032 ± 0.084 mPa·s
298.36 K, 30500 kPa
  mass density: 786.4 ± 2.4 kg/m3
  viscosity: 4.534 ± 0.094 mPa·s
298.61 K, 970 kPa
  mass density: 768.9 ± 2.3 kg/m3
  viscosity: 3.143 ± 0.065 mPa·s
298.61 K, 10340 kPa
  mass density: 774.7 ± 2.3 kg/m3
  viscosity: 3.562 ± 0.073 mPa·s
298.61 K, 20570 kPa
  mass density: 780.8 ± 2.3 kg/m3
  viscosity: 4.041 ± 0.084 mPa·s
298.61 K, 30370 kPa
  mass density: 785.9 ± 2.4 kg/m3
  viscosity: 4.588 ± 0.094 mPa·s
323.21 K, 1090 kPa
  mass density: 751.5 ± 2.3 kg/m3
  viscosity: 1.874 ± 0.04 mPa·s
323.21 K, 1250 kPa
  mass density: 751.7 ± 2.3 kg/m3
  viscosity: 1.872 ± 0.04 mPa·s
323.21 K, 21100 kPa
  mass density: 765.2 ± 2.3 kg/m3
  viscosity: 2.387 ± 0.05 mPa·s
323.21 K, 40990 kPa
  mass density: 776.9 ± 2.3 kg/m3
  viscosity: 2.957 ± 0.061 mPa·s
323.21 K, 60490 kPa
  mass density: 787.1 ± 2.4 kg/m3
  viscosity: 3.598 ± 0.075 mPa·s
323.21 K, 80320 kPa
  mass density: 796 ± 2.4 kg/m3
  viscosity: 4.381 ± 0.091 mPa·s
323.21 K, 102810 kPa
  mass density: 803.3 ± 2.4 kg/m3
  viscosity: 5.08 ± 0.11 mPa·s
323.22 K, 990 kPa
  mass density: 752.4 ± 2.3 kg/m3
  viscosity: 1.878 ± 0.04 mPa·s
323.22 K, 20960 kPa
  mass density: 764.8 ± 2.3 kg/m3
  viscosity: 2.429 ± 0.051 mPa·s
323.22 K, 42100 kPa
  mass density: 777.2 ± 2.3 kg/m3
  viscosity: 3.007 ± 0.062 mPa·s
323.22 K, 61170 kPa
  mass density: 787.4 ± 2.4 kg/m3
  viscosity: 3.666 ± 0.076 mPa·s
323.22 K, 81170 kPa
  mass density: 796 ± 2.4 kg/m3
  viscosity: 4.471 ± 0.092 mPa·s
348.2 K, 610 kPa
  mass density: 734.8 ± 2.2 kg/m3
  viscosity: 1.275 ± 0.027 mPa·s
348.2 K, 1010 kPa
  mass density: 734.4 ± 2.2 kg/m3
  viscosity: 1.255 ± 0.027 mPa·s
348.2 K, 1070 kPa
  mass density: 734.5 ± 2.2 kg/m3
  viscosity: 1.251 ± 0.027 mPa·s
348.2 K, 20050 kPa
  mass density: 749.2 ± 2.3 kg/m3
  viscosity: 1.57 ± 0.033 mPa·s
348.2 K, 20370 kPa
  mass density: 749.8 ± 2.3 kg/m3
  viscosity: 1.595 ± 0.033 mPa·s
348.2 K, 40520 kPa
  mass density: 762.5 ± 2.3 kg/m3
  viscosity: 1.939 ± 0.041 mPa·s
348.2 K, 40780 kPa
  mass density: 762.9 ± 2.3 kg/m3
  viscosity: 1.97 ± 0.041 mPa·s
348.2 K, 60680 kPa
  mass density: 773.7 ± 2.3 kg/m3
  viscosity: 2.356 ± 0.049 mPa·s
348.2 K, 62000 kPa
  mass density: 773.9 ± 2.3 kg/m3
  viscosity: 2.398 ± 0.05 mPa·s
348.2 K, 80380 kPa
  mass density: 783.3 ± 2.4 kg/m3
  viscosity: 2.813 ± 0.059 mPa·s
348.2 K, 80450 kPa
  mass density: 783.5 ± 2.4 kg/m3
  viscosity: 2.806 ± 0.059 mPa·s
348.2 K, 100940 kPa
  mass density: 791.9 ± 2.4 kg/m3
  viscosity: 3.278 ± 0.068 mPa·s
373.12 K, 1210 kPa
  mass density: 717.2 ± 2.2 kg/m3
  viscosity: 0.911 ± 0.02 mPa·s
373.12 K, 1240 kPa
  mass density: 717.3 ± 2.2 kg/m3
  viscosity: 0.91 ± 0.02 mPa·s
373.12 K, 20080 kPa
  mass density: 733.9 ± 2.2 kg/m3
  viscosity: 1.136 ± 0.024 mPa·s
373.12 K, 40700 kPa
  mass density: 748.6 ± 2.2 kg/m3
  viscosity: 1.397 ± 0.029 mPa·s
373.12 K, 60760 kPa
  mass density: 760.8 ± 2.3 kg/m3
  viscosity: 1.678 ± 0.035 mPa·s
373.12 K, 80760 kPa
  mass density: 771.3 ± 2.3 kg/m3
  viscosity: 1.988 ± 0.042 mPa·s
373.12 K, 100220 kPa
  mass density: 780.9 ± 2.3 kg/m3
  viscosity: 2.303 ± 0.048 mPa·s
373.25 K, 1370 kPa
  mass density: 717.7 ± 2.2 kg/m3
  viscosity: 0.926 ± 0.02 mPa·s
373.25 K, 19850 kPa
  mass density: 733.7 ± 2.2 kg/m3
  viscosity: 1.148 ± 0.024 mPa·s
373.25 K, 40190 kPa
  mass density: 748.6 ± 2.2 kg/m3
  viscosity: 1.399 ± 0.029 mPa·s
373.25 K, 59970 kPa
  mass density: 760.4 ± 2.3 kg/m3
  viscosity: 1.692 ± 0.035 mPa·s
373.25 K, 81310 kPa
  mass density: 771.4 ± 2.3 kg/m3
  viscosity: 1.995 ± 0.042 mPa·s
398.21 K, 1230 kPa
  mass density: 700.1 ± 2.1 kg/m3
  viscosity: 0.693 ± 0.015 mPa·s
398.21 K, 1670 kPa
  mass density: 700.4 ± 2.1 kg/m3
  viscosity: 0.694 ± 0.015 mPa·s
398.21 K, 20450 kPa
  mass density: 719.1 ± 2.2 kg/m3
  viscosity: 0.872 ± 0.019 mPa·s
398.21 K, 40750 kPa
  mass density: 735.1 ± 2.2 kg/m3
  viscosity: 1.066 ± 0.023 mPa·s
398.21 K, 60560 kPa
  mass density: 748.2 ± 2.2 kg/m3
  viscosity: 1.265 ± 0.027 mPa·s
398.21 K, 80390 kPa
  mass density: 759.4 ± 2.3 kg/m3
  viscosity: 1.488 ± 0.031 mPa·s
398.21 K, 100460 kPa
  mass density: 769.4 ± 2.3 kg/m3
  viscosity: 1.71 ± 0.036 mPa·s
398.28 K, 1050 kPa
  mass density: 700.3 ± 2.1 kg/m3
  viscosity: 0.697 ± 0.015 mPa·s
398.28 K, 21190 kPa
  mass density: 719.6 ± 2.2 kg/m3
  viscosity: 0.879 ± 0.019 mPa·s
398.28 K, 41290 kPa
  mass density: 735.3 ± 2.2 kg/m3
  viscosity: 1.082 ± 0.023 mPa·s
398.28 K, 59990 kPa
  mass density: 747.8 ± 2.2 kg/m3
  viscosity: 1.267 ± 0.027 mPa·s
398.28 K, 80670 kPa
  mass density: 759.3 ± 2.3 kg/m3
  viscosity: 1.498 ± 0.031 mPa·s
423.26 K, 1360 kPa
  mass density: 682.2 ± 2.1 kg/m3
  viscosity: 0.542 ± 0.012 mPa·s
423.26 K, 1420 kPa
  mass density: 682.4 ± 2.1 kg/m3
  viscosity: 0.544 ± 0.012 mPa·s
423.26 K, 20790 kPa
  mass density: 704.2 ± 2.1 kg/m3
  viscosity: 0.691 ± 0.015 mPa·s
423.26 K, 40900 kPa
  mass density: 721.5 ± 2.2 kg/m3
  viscosity: 0.845 ± 0.018 mPa·s
423.26 K, 60040 kPa
  mass density: 735.2 ± 2.2 kg/m3
  viscosity: 0.998 ± 0.021 mPa·s
423.26 K, 80490 kPa
  mass density: 747.7 ± 2.2 kg/m3
  viscosity: 1.171 ± 0.025 mPa·s
423.26 K, 100020 kPa
  mass density: 758.2 ± 2.3 kg/m3
  viscosity: 1.348 ± 0.028 mPa·s
423.31 K, 1460 kPa
  mass density: 682.9 ± 2.1 kg/m3
  viscosity: 0.554 ± 0.012 mPa·s
423.31 K, 20610 kPa
  mass density: 704.4 ± 2.1 kg/m3
  viscosity: 0.699 ± 0.015 mPa·s
423.31 K, 40760 kPa
  mass density: 721.8 ± 2.2 kg/m3
  viscosity: 0.853 ± 0.018 mPa·s
423.31 K, 60120 kPa
  mass density: 735.2 ± 2.2 kg/m3
  viscosity: 1.012 ± 0.022 mPa·s
423.31 K, 80990 kPa
  mass density: 748.2 ± 2.2 kg/m3
  viscosity: 1.189 ± 0.025 mPa·s
448.23 K, 1100 kPa
  mass density: 664 ± 2 kg/m3
  viscosity: 0.437 ± 0.01 mPa·s
448.23 K, 1170 kPa
  mass density: 664.1 ± 2 kg/m3
  viscosity: 0.438 ± 0.01 mPa·s
448.23 K, 20220 kPa
  mass density: 688.7 ± 2.1 kg/m3
  viscosity: 0.559 ± 0.013 mPa·s
448.23 K, 40500 kPa
  mass density: 708.1 ± 2.1 kg/m3
  viscosity: 0.689 ± 0.015 mPa·s
448.23 K, 60460 kPa
  mass density: 723.5 ± 2.2 kg/m3
  viscosity: 0.82 ± 0.018 mPa·s
448.23 K, 80430 kPa
  mass density: 736.5 ± 2.2 kg/m3
  viscosity: 0.958 ± 0.02 mPa·s
448.23 K, 100270 kPa
  mass density: 748 ± 2.2 kg/m3
  viscosity: 1.098 ± 0.023 mPa·s
448.48 K, 1230 kPa
  mass density: 663.8 ± 2 kg/m3
  viscosity: 0.445 ± 0.01 mPa·s
448.48 K, 20750 kPa
  mass density: 688.9 ± 2.1 kg/m3
  viscosity: 0.571 ± 0.013 mPa·s
448.48 K, 40680 kPa
  mass density: 707.8 ± 2.1 kg/m3
  viscosity: 0.702 ± 0.015 mPa·s
448.48 K, 60650 kPa
  mass density: 723.1 ± 2.2 kg/m3
  viscosity: 0.831 ± 0.018 mPa·s
448.48 K, 80720 kPa
  mass density: 736.2 ± 2.2 kg/m3
  viscosity: 0.97 ± 0.021 mPa·s
473.54 K, 1250 kPa
  mass density: 645.4 ± 2 kg/m3
  viscosity: 0.359 ± 0.01 mPa·s
473.54 K, 1270 kPa
  mass density: 645.8 ± 1.9 kg/m3
  viscosity: 0.36 ± 0.009 mPa·s
473.54 K, 20770 kPa
  mass density: 674.2 ± 2 kg/m3
  viscosity: 0.469 ± 0.011 mPa·s
473.54 K, 40980 kPa
  mass density: 695.3 ± 2.1 kg/m3
  viscosity: 0.579 ± 0.013 mPa·s
473.54 K, 60770 kPa
  mass density: 711.8 ± 2.1 kg/m3
  viscosity: 0.688 ± 0.015 mPa·s
473.54 K, 80500 kPa
  mass density: 725.5 ± 2.2 kg/m3
  viscosity: 0.803 ± 0.017 mPa·s
473.54 K, 101080 kPa
  mass density: 738.1 ± 2.2 kg/m3
  viscosity: 0.924 ± 0.02 mPa·s
473.85 K, 1400 kPa
  mass density: 645.2 ± 1.9 kg/m3
  viscosity: 0.367 ± 0.009 mPa·s
473.85 K, 21260 kPa
  mass density: 674.3 ± 2 kg/m3
  viscosity: 0.478 ± 0.011 mPa·s
473.85 K, 41040 kPa
  mass density: 694.7 ± 2.1 kg/m3
  viscosity: 0.59 ± 0.013 mPa·s
473.85 K, 61190 kPa
  mass density: 711.3 ± 2.1 kg/m3
  viscosity: 0.706 ± 0.015 mPa·s
473.85 K, 81710 kPa
  mass density: 725.7 ± 2.2 kg/m3
  viscosity: 0.815 ± 0.018 mPa·s
